Reference: PubChem BioAssay (NCI)
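Here, GI50 denotes the concentration required for 50% inhibition of growth. TGI: total growth inhibition.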

Assays:
Assay in all cases: NCI-60 cell line screen, 384-well format
RPMI-8226 leukemia = system: RPMI-8226 leukemia
SF-539 CNS = system: SF-539 CNS
A549 NSCLC = system: A549 NSCLC
K-562 leukemia = system: K-562 leukemia
UACC-62 melanoma = system: UACC-62 melanoma
786-0 renal = system: 786-0 renal
OVCAR-5 ovarian = system: OVCAR-5 ovarian
NCI-H226 lung = system: NCI-H226 lung
NCI-H23 lung = system: NCI-H23 lung
HCC-2998 colon = system: HCC-2998 colon
HS 578T breast = system: HS 578T breast
CAKI-1 renal = system: CAKI-1 renal
U251 glioblastoma = system: U251 glioblastoma

With `Nc1nc2cc(-c3ccc4ncc(C(=O)N5CCOCC5)n4c3)ccc2o1` the GI50 (RPMI-8226 leukemia) was 1.58 µM, the TGI (RPMI-8226 leukemia) was 4.55 µM and the GI50 (SF-539 CNS) was over 60.9 µM. The TGI (SF-539 CNS) was over 100 µM, the GI50 (A549 NSCLC) was 9.11 µM and the TGI (A549 NSCLC) was over 100 µM. For the same compound, the GI50 (K-562 leukemia) was over 86 µM, the TGI (K-562 leukemia) was over 100 µM and the GI50 (UACC-62 melanoma) was 66.4 µM. For the same compound, the TGI (UACC-62 melanoma) was over 100 µM, the GI50 ([…]-0 renal) was over 75.6 µM and the TGI (786-0 renal) was over 100 µM. For the same compound, the GI50 (OVCAR-5 ovarian) was 7.68 µM, the TGI (OVCAR-5 ovarian) was over 100 µM and the GI50 (NCI-H226 lung) was over 40.4 µM. The TGI (NCI-H226 lung) was over 100 µM, the GI50 (NCI-H23 lung) was 5.59 µM and the TGI (NCI-H23 lung) was over 100 µM. It also gave a GI50 (HCC-2998 colon) of 12.4 µM, a TGI (HCC-2998 colon) of over 100 µM and a GI50 (HS 578T breast) of 6.07 µM. It also gave a TGI (HS 578T breast) of 66.2 µM, a GI50 (CAKI-1 renal) of 6.74 µM and a TGI (CAKI-1 renal) of over 100 µM. The GI50 (U251 glioblastoma) was over 74.7 µM and the TGI (U251 glioblastoma) was over 100 µM.
